Measurements published in patent US10357500B2, “Neuro-protective agents and uses thereof” (Guangzhou Cellprotek Pharmaceutical Co., Ltd., priority 2014, dated 2019).
“Also recorded” adds a separate entry of the source.

Columns and labels:
Type in all cases: in vivo
[1] = system: Macaca fascicularis in acute hypobaric hypoxia; assay: Neurological score, acute hypobaric hypoxia model (simulated 7,500 m); conditions: for neurological function / neurological score (in words): acute hypobaric hypoxia, simulated 7,500 meters, vs solvent control
Text: (§1) 17 healthy male Macaca fascicularis, 6 to 6.5 years-old, weighted 6.8-7.5 kg, were used. The use of laboratory animals is approved by Committee of laboratory animal management and use and experimental animal ethics committee. The experiment scheme complies with rules concerning animal protection, animal welfare and ethical principles. The 17 Macaca fascicularis were grouped randomly into 3 groups (Table 1).
(§2) The low pressure chamber group is a platform used to simulate low temperature and low pressure plateau environment. The system can be manipulated to simulate a low pressure environment having any altitude below 10000 meters and any temperature above −30° C. The ascending velocity: 3 m/second (0 to 6000 m); descending velocity: 2 m/second (6000 m to 7500 m); constant temperature: 22° C.; average air flow velocity: 150 m^3/h.
(§3) (1) An altitude of 7,500 meters was simulated by manipulation of the low-pressure chamber to cause acute hypoxia in Macaca fascicularis.
(§4) The Macaca fascicularis raised in the laboratory animal housing were labeled and transferred to the low-pressure chamber. The Macaca fascicularis was fed for 1 more day in the chamber in order to make them adapt to the experimental environment. The pressure in the low-pressure chamber was adjusted to simulate altitudes of 3,000, 4,500, and 6,000 meters, staying at each altitude for 30 minutes, followed by simulation of an altitude of […] for 24 hours. The animals were then treated with drugs individually at pre-determined doses. After treatment at 7,500 meters for 48 hours, the altitude was decreased to 6,000 meters at a velocity of 3 m/s. The animals were subject to ketamine anesthesia, sacrificed, dissected and subject to sampling. The samples were fixed. Animals grouped in plain controls were raised in an animal housing at an altitude of 350 m before assessment and sacrifice.
(§5) (2) The animals in 5α-androstane-3β,5,6β-triol treatment group were administered through intravenous injection 10 mL of 5α-androstane-3β,5,6β-triol solution in glucose saline at a dosage of 10 mg/kg before simulation, after 30 min at 3,000 meters, and after 30 min at 4,500 meters, respectively. The animals in solvent control group were given 10 mL of glucose saline through intravenous injection.
(3) The animals in 5α-androstane-3β,5,6β-triol treatment group were administered by skeletal muscle injection at 5 different points with 5α-androstane-3β,5,6β-triol sustained-release formulation at a dosage of 30 mg/kg after 30 min at 6,000 meters. Acute plateau hypoxia models were administered 10 mL of glucose saline through intravenous injection. […]
Animals were stayed at simulated altitude of 7,500 meters for 24 hours before descending to 6,000 meters at a speed of 3 m/s. The neurological scores were evaluated and recorded according to a reported method (Zhu et al, An improved method of neurological score for non-human primates, Chinese Journal of Comparative Medicine, 2011, 21 (9): 58-62). The neurological score was evaluated and recorded by two trained observers who were neither aware of the grouping nor involved in the drug administering. […]
The results were indicated as mean±standard deviation, and statistically analyzed by software SigmaPlot. […]

[2] = system: Macaca fascicularis in acute hypobaric hypoxia; assay: Cerebral water content of left hemisphere, acute hypobaric hypoxia model; conditions: for Cerebral Water Content (%): left hemisphere, 48 hours at simulated 7,500 meters, 10 mg/kg i.v. and 30 mg/kg i.m., repeated after 24 hours; for increase of cerebral water content (in words): acute hypobaric hypoxia, simulated 7,500 meters, vs solvent control
Text: as §1, §2, §3, §4, §5
(§6) (3) The animals in 5α-androstane-3β,5,6β-triol treatment group were administered by skeletal muscle injection at 5 different points with 5α-androstane-3β,5,6β-triol sustained-release formulation at a dosage of 30 mg/kg after 30 min at 6,000 meters. Acute plateau hypoxia models were administered 10 mL of glucose saline through intravenous injection.
(4) The animals in 5α-androstane-3β,5,6β-triol treatment group were administered through intravenous injection 10 mL of 5α-androstane-3β,5,6β-triol injection in glucose saline at a dosage of 10 mg/kg after 24 hours at 7,500 meters, and further by skeletal muscle injection at 5 different points with 5α-androstane-3β,5,6β-triol sustained-release formulation at a dosage of 30 mg/kg. […]
Cerebral water content was measured according to a reported method (Patir H, Sarada S K, Singh S, Mathew T, Singh B, Bansal A. Quercetin as a prophylactic measure against high altitude cerebral edema. Free Radic Biol Med 2012 Aug. 15; 53(4):659-68). […] Brains of the animals were rapidly taken out and the wet weights of the left hemispheres were measured. The left hemispheres were then placed in a drying oven at 60° C., and were measured their weights daily at a fixed time until no weight change was observed. […]

[3] = system: Macaca fascicularis in acute hypobaric hypoxia; assay: Transmission electron microscopy of the cortical tissue of the frontal lobe (vasogenic edema); conditions: frontal lobe cortex, transmission electron microscope, vs solvent control
Text: as §1, §2, §3, §4, §5, §6
(4) The animals in 5α-androstane-3β,5,6β-triol treatment group were administered through intravenous injection 10 mL of 5α-androstane-3β,5,6β-triol injection in glucose saline at a dosage of 10 mg/kg after 24 hours at 7,500 meters, and further by skeletal muscle injection at 5 different points with 5α-androstane-3β,5,6β-triol sustained-release formulation at a dosage of 30 mg/kg. Acute plateau hypoxia models were administered 10 mL of glucose saline through intravenous injection.
The cortical tissues of the frontal lobes of the animals were taken out and cut to provide brain pieces of 1 mm^3, which were fixed in a stationary liquid of 2.5% glutaraldehyde to prepare ultrathin sections. The morphology of neurons and the structure of blood vessels were observed by transmission electron microscopy.

[4] = system: Macaca fascicularis in acute hypobaric hypoxia; assay: HE staining of the cortical tissue of the frontal lobe (neuronal vacuolar degeneration); conditions: frontal lobe cortex, vs solvent control
Text: as §1, §2, §3
The Macaca fascicularis raised in the laboratory animal housing were labeled and transferred to the low-pressure chamber. The Macaca fascicularis was fed for 1 more day in the chamber in order to make them adapt to the experimental environment. […] The animals were then treated with drugs individually at pre-determined doses. […]

Compound | neurological score ([1]; 24 hours at simulated 7,500 meters, 10 mg/kg i.v. x3 and 30 mg/kg i.m. sustained-release, solvent control 31.6±4.2, mean±SD) | neurological function / neurological score (in words) [1] | Cerebral Water Content (%) ([2]; plain control 76.155, solvent control 76.714) | Cerebral Water Content (%) ([2]; plain control 76.155, solvent control 76.714, listed as 5α-androstane-3β3,5,6β-triol) | vasogenic edema / Virchow-Robin space of cortical capillary vessels (in words) [3] | neuronal vacuolar degeneration (in words) [4] | increase of cerebral water content (in words) [2]
C[C@@]12CCC[C@H]1[C@@H]1C[C@@H](O)[C@@]3(O)C[C@@H](O)CC[C@]3(C)[C@H]1CC2 [5α-androstane-3β,5,6β-triol] | 20.5±5.7 | significantly improved | 76.283 ± 0.235 | 76.283 | reduced; also recorded: no significant vasogenic edema occurred | reduced neuronal vacuolar degeneration | –
CC(C)CCC[C@@H](C)[C@H]1CC[C@H]2[C@@H]3C[C@@H](O)[C@@]4(O)C[C@@H](O)CC[C@]4(C)[C@H]3CC[C@]12C [Compound I, cholestane-3β,5α,6β-triol] | – | – | – | – | effectively reduce | effectively reduce | –
CCC=C1CC[C@H]2[C@@H]3C[C@@H](O)[C@@]4(O)C[C@@H](O)CC[C@]4(C)[C@H]3CC[C@]12C [Compound II, 17-propylidene-androstane-3β,5α,6β-triol] | – | effectively protected | – | – | no significant angioedema | – | inhibited increase of the cerebral water content
CC(C)C1CC[C@H]2[C@@H]3C[C@@H](O)[C@@]4(O)C[C@@H](O)CC[C@]4(C)[C@H]3CC[C@]12C (stereo partly drawn) [Compound III, 17-isopropyl-androstane-3β,5α,6β-triol] | – | effectively protected | – | – | no significant angioedema | – | inhibited increase of the cerebral water content
CCCCC1CC[C@H]2[C@@H]3C[C@@H](O)[C@@]4(O)C[C@@H](O)CC[C@]4(C)[C@H]3CC[C@]12C (stereo partly drawn) [Compound IV, 17-butyl-androstane-3β,5α,6β-triol] | – | effectively protected | – | – | no significant angioedema | – | inhibited increase of the cerebral water content
